# From patent US20160184795A1, “METHODS AND SYSTEMS FOR […]” (SHELL OIL COMPANY, priority 2014, published 2016)
# Several values for one entry are separate records, joined by “and”; a condition that tells them apart may be missing. Equal entries are not always repeated.
# Assay: Solubility of alkylphenol in water at digestion conditions
# Type: physicochemical
# Settings: 240 C, 15 bar N2, 30 g xylenol + 30 g deionized water, phases separated hot, consecutive samples via bottom dip tube
# From the text: Stirring was stopped, and phases were allowed to separate while hot, before sampling of all reactor contents via consecutive withdrawal of samples via a bottom dip tube.
smiles,measurement,value
"Cc1cccc(C)c1O [xylenol, 2,6-dimethylphenol]","weight fraction of xylenol in water, individual samples withdrawn",18.6 weight percent and 26 weight percent and 32 weight percent
